Test results: patent US20250092065A1, “2-(INDAZOL-5-YL)-6-(PIPERIDIN-4-YL)-1,7-NAPHTHYRIDINE DERIVATIVES AND RELATED COMPOUNDS AS MODULATORS FOR SPLICING NUCLEIC ACIDS AND FOR THE TREATMENT OF PROLIFERATIVE DISEASES” (REMIX THERAPEUTICS INC., priority 2022, published 2025)

Experiments:
Target C = experiment: HiBiT protein abundance assay, Target C (K562 HiBiT knock-in); type: cell-based, human; conditions: HiBiT knock-in K562 cells, 24 hours, top dose 10 μM
Summary of the method: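 K562 HiBiT knock-in cells (10000/well) were treated 24 h at 37° C with a 10-point 3-fold dilution series (top 10 μM final, ≤0.25% DMSO). HiBiT luminescence was read after lytic LgBiT detection. Percent response used unmodified K562 and DMSO-treated knock-in controls, and IC50 came from a four-parameter fit at 50% of untreated.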

SMN2 mRNA = experiment: RT-qPCR splicing assay, SMN2 mRNA; type: cell-based, human; conditions: Homo sapiens, canonical junction qPCR panel, Table 4; read-out: SMN2 IC50 (decrease in CJ mRNA levels)
Summary of the method: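 Junction-specific RT-qPCR read-out: CJ and AJ isoform levels, housekeeper-normalized (GAPDH/GUSB/PPIA), ΔΔCt vs DMSO, converted to RQ then % response. Cells: A673 (DMEM/10% FBS, adhered 24 h) or K562 (IMDM/10% FBS). Compound 11-pt 3-fold, top 10 uM, 24 h, 37 °C.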

K562 cells = experiment: Cell Titer Glo 2.0 cell viability (toxicity) assay, K562; conditions: 500 cells/well, 72 hours
HTT = experiment: HiBiT protein abundance assay, HTT (K562 HiBiT knock-in); type: cell-based, human; conditions: HiBiT knock-in K562 cells, 24 hours, top dose 10 μM
Summary of the method: (§1)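 Tagged-protein levels were measured as HiBiT/LgBiT luminescence in lysed K562 knock-in cells exposed to serially diluted compound (up to 10 μM final) for 24 hours. A four-parameter logistic regression of control-normalized signal yielded the IC50.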

MYB = experiment: HiBiT protein abundance assay, MYB (K562 HiBiT knock-in); type: cell-based, human; conditions: HiBiT knock-in K562 cells, 24 hours, top dose 10 μM
Summary of the method: as §1

Row | IC50 (Target C) | IC50 (SMN2 mRNA) | IC50 (HTT) | IC50 (MYB) | SMILES | Effect of Exemplary Compounds on Cell Viability, K562 (K562 cells)
1 | 1 to 10 µM | < 0.1 µM | 0.1 to 1 µM | < 0.1 µM | CC(=O)c1nc(-c2cc3cn(C)nc3c(F)c2O)nc2ccc(N3CCNCC3)cc12 [Compound 513, 1-(2-(7-fluoro-6-hydroxy-2-methyl-2H-indazol-5-yl)-6-(piperazin-1-yl)quinazolin-4-yl)ethan-1-one 2,2,2-trifluoroacetate] | A (A represents <100 nM)
2 | 1 to 10 µM | < 0.1 µM | 1 to 10 µM | < 0.1 µM | Cn1cc2cc(-c3nc(C4CC4)c4cc(N5CCNCC5)ccc4n3)c(O)c(F)c2n1 [Compound 518, 5-[4-cyclopropyl-6-(piperazin-1-yl)quinazolin-2-yl]-7-fluoro-2-methylindazol-6-ol; trifluoroacetic acid] | B (B represents 100-1000 nM)
3 | 1 to 10 µM | < 0.1 µM | 0.1 to 1 µM | < 0.1 µM | Cc1c(O)c(-c2nc(C(N)=O)c3cc(N4CCNCC4)ccc3n2)cc2cn(C)nc12 [Compound 523, 2-(6-hydroxy-2,7-dimethylindazol-5-yl)-6-(piperazin-1-yl) quinazoline-4-carboxamide] | A (A represents <100 nM)
4 | 0.1 to 1 µM | < 0.1 µM | < 0.1 µM | < 0.1 µM | CNC(=O)c1nc(-c2cc3cn(C)nc3c(F)c2O)nc2ccc(N3C[C@@H](C)N[C@@H](C)C3)cc12 [Compound 527, 6-[(3R,5S)-3,5-dimethylpiperazin-1-yl]-2-(7-fluoro-6-hydroxy-2-methylindazol-5-yl)-N-methylquinazoline-4-carboxamide] | A (A represents <100 nM)
5 | 0.1 to 1 µM | < 0.1 µM | 0.1 to 1 µM | < 0.1 µM | CNC(=O)c1nc(-c2cc3cn(C)nc3c(F)c2O)nc2ccc(N3CCC(N(C)C)CC3)cc12 [Compound 528, 6-[4-(dimethylamino)piperidin-1-yl]-2-(7-fluoro-6-hydroxy-2-methylindazol-5-yl)-N-methylquinazoline-4-carboxamide] | A (A represents <100 nM)
6 | 0.1 to 1 µM | < 0.1 µM | < 0.1 µM | < 0.1 µM | CNC(=O)c1nc(-c2cc3cn(C)nc3c(F)c2O)nc2ccc(N3CCN[C@@H](C)C3)cc12 [Compound 529, 2-(7-fluoro-6-hydroxy-2-methylindazol-5-yl)-N-methyl-6-[(3S)-3-methylpiperazin-1-yl]quinazoline-4-carboxamide] | A (A represents <100 nM)
7 | 0.1 to 1 µM | < 0.1 µM | 0.1 to 1 µM | < 0.1 µM | CNC(=O)c1nc(-c2cc3cn(C)nc3cc2O)nc2ccc(N3CCN[C@@H](C)C3)cc12 [Compound 530, 2-(6-hydroxy-2-methylindazol-5-yl)-N-methyl-6-[(3S)-3-methylpiperazin-1-yl]quinazoline-4-carboxamide] | A (A represents <100 nM)
8 | 0.1 to 1 µM | < 0.1 µM | 0.1 to 1 µM | < 0.1 µM | CNC(=O)c1nc(-c2cc3cn(C)nc3c(C)c2O)nc2ccc(N3CCNC4(CC4)C3)cc12 [Compound 532, 6-{4,7-diazaspiro[2.5]octan-7-yl}-2-(6-hydroxy-2,7-dimethylindazol-5-yl)-N-methylquinazoline-4-carboxamide] | B (B represents 100-1000 nM)

More lines, now with the values behind:

Row | SMILES | IC50 (Target C) | IC50 (SMN2 mRNA) | IC50 (HTT) | IC50 (MYB) | Effect of Exemplary Compounds on Cell Viability, K562 (K562 cells)
9 | Cn1cc2cc(-c3nc(C#N)c4cc(N5CCNCC5)ccc4n3)c(O)c(F)c2n1 [Compound 514, 2-(7-fluoro-6-hydroxy-2-methylindazol-5-yl)-6-(piperazin-1-yl) quinazoline-4-carbonitrile; trifluoroacetic acid] | 0.1 to 1 µM | < 0.1 µM | 0.1 to 1 µM | < 0.1 µM | A (A represents <100 nM)
10 | Cc1c(O)c(-c2ccc3cc(N4CCNCC4)cc(F)c3n2)cc2cn(C)nc12 [Compound 515, 5-[8-fluoro-6-(piperazin-1-yl)quinolin-2-yl]-2,7-dimethylindazol-6-ol] | < 0.1 µM | < 0.1 µM | < 0.1 µM | < 0.1 µM | A (A represents <100 nM)
11 | Cn1cc2cc(-c3ccc4cc(N5CCNCC5)cc(F)c4n3)cc(F)c2n1 [Compound 516, 8-fluoro-2-(7-fluoro-2-methylindazol-5-yl)-6-(piperazin-1-yl)quinoline] | 0.1 to 1 µM | < 0.1 µM | < 0.1 µM | < 0.1 µM | B (B represents 100-1000 nM)
12 | Cc1cn2cc(-c3ccc4cc(N5CCNCC5)cc(F)c4n3)cc(F)c2n1 [Compound 517, 8-fluoro-2-{8-fluoro-2-methylimidazo[1,2-a]pyridin-6-yl}-6-(piperazin-1-yl)quinoline] | 0.1 to 1 µM | < 0.1 µM | < 0.1 µM | < 0.1 µM | A (A represents <100 nM)
13 | Cc1c(O)c(-c2nc(-c3cncs3)c3cc(N4CCNCC4)ccc3n2)cc2cn(C)nc12 [Compound 519, 2,7-dimethyl-5-[6-(piperazin-1-yl)-4-(1,3-thiazol-5-yl)quinazolin-2-yl]indazol-6-ol] | 1 to 10 µM | < 0.1 µM | 1 to 10 µM | 0.1 to 1 µM | B (B represents 100-1000 nM)
14 | Cc1c(O)c(-c2ncc3cc(N4CCNCC4)ccc3n2)cc2cn(C)nc12 [Compound 520, 2,7-dimethyl-5-[6-(piperazin-1-yl)quinazolin-2-yl]indazol-6-ol] | 0.1 to 1 µM | < 0.1 µM | 0.1 to 1 µM | < 0.1 µM | B (B represents 100-1000 nM)
15 | Cc1c(O)c(-c2nc(-c3nnc[nH]3)c3cc(N4CCNCC4)ccc3n2)cc2cn(C)nc12 [Compound 522, 2,7-dimethyl-5-[6-(piperazin-1-yl)-4-(4H-1,2,4-triazol-3-yl)quinazolin-2-yl]indazol-6-ol; bis(trifluoroacetic acid)] | 1 to 10 µM | < 0.1 µM | 1 to 10 µM | 0.1 to 1 µM | C (C represents 1000-9999 nM)
16 | Cc1c(O)c(-c2nc(C(=O)O)c3cc(N4CCNCC4)ccc3n2)cc2cn(C)nc12 [Compound 524, 2-(6-hydroxy-2,7-dimethylindazol-5-yl)-6-(piperazin-1-yl) quinazoline-4-carboxylic acid] | > 10 µM | 1 to 10 µM | > 10 µM | > 10 µM | D (D represents greater than 10 μM in K562 cells)
17 | Cc1c(O)c(-c2ncc3cc(N4C[C@@H](C)N[C@@H](C)C4)ccc3n2)cc2cn(C)nc12 [Compound 525, 5-{6-[(3R,5S)-3,5-dimethylpiperazin-1-yl]quinazolin-2-yl}-2,7-dimethylindazol-6-ol] | 0.1 to 1 µM | < 0.1 µM | 0.1 to 1 µM | < 0.1 µM | B (B represents 100-1000 nM)
18 | Cc1c(O)c(-c2ncc3nc(N4C[C@@H](C)N[C@@H](C)C4)ccc3n2)cc2cn(C)nc12 [Compound 526, 5-{6-[(3R,5S)-3,5-dimethylpiperazin-1-yl]pyrido[3,2-d]pyrimidin-2-yl}-2,7-dimethylindazol-6-ol] | 0.1 to 1 µM | < 0.1 µM | 0.1 to 1 µM | 0.1 to 1 µM | B (B represents 100-1000 nM)
19 | CNC(=O)c1nc(-c2cc3cn(C)nc3cc2O)nc2ccc(N3C[C@@H](C)N[C@@H](C)C3)cc12 [Compound 531, 6-[(3R,5S)-3,5-dimethylpiperazin-1-yl]-2-(6-hydroxy-2-methylindazol-5-yl)-N-methylquinazoline-4-carboxamide] | 1 to 10 µM | < 0.1 µM | 0.1 to 1 µM | < 0.1 µM | A (A represents <100 nM)
20 | CNC(=O)c1nc(-c2cc3cn(C)nc3c(C)c2O)nc2ccc(N3CCNCC3)nc12 [Compound 533, 2-(6-hydroxy-2,7-dimethylindazol-5-yl)-N-methyl-6-(piperazin-1-yl)pyrido[3,2-d]pyrimidine-4-carboxamide] | 1 to 10 µM | < 0.1 µM | 1 to 10 µM | 0.1 to 1 µM | B (B represents 100-1000 nM)
21 | CNC(=O)c1nc(-c2cc3cn(C)nc3c(C)c2O)nc2ccc(N3C[C@@H](C)N[C@@H](C)C3)nc12 [Compound 534, 6-[(3R,5S)-3,5-dimethylpiperazin-1-yl]-2-(6-hydroxy-2,7-dimethylindazol-5-yl)-N-methylpyrido[3,2-d]pyrimidine-4-carboxamide] | 1 to 10 µM | < 0.1 µM | 1 to 10 µM | 0.1 to 1 µM | B (B represents 100-1000 nM)
